Entries after “also recorded” stand apart in the source; their conditions may differ.
Experiments:
Format in all cases: cell-based
[1] = system: STAT5 phosphorylation in CD4+ Treg cells; experiment: STAT5 phosphorylation in CD4+ Treg cells, human PBMC assay by FACS
Text: (§1) Single amino acid substitutions were introduced to IL-2 at positions corresponding to amino acids interacting with receptor subunit(s) β or γ or βγ. These substitutions were aimed to reduce IL-2 signaling capacity through the intermediate affinity IL-2Rβγ complex and confer signaling specificity from the high affinity IL-2Rαβγ. IL-2 variants containing single amino acid substitutions were examined for their ability to differentially stimulate STAT5 phosphorylation in CD4 positive Treg and Tconv cells. STAT5 is known to be involved in the downstream signaling cascade upon IL-2 binding to the transmembrane IL-2 receptors. The phosphorylation of STAT5 in defined lymphocyte subpopulations was measured using fresh human peripheral blood mononuclear cells (PBMC) and the forkhead transcription factor FOXP3 was used to identify the Treg population in FACS analysis.
(§2) Briefly, human PBMC were isolated by Ficoll-Hypaque centrifugation from the buffy coat of a healthy donor. PBMC were starved in serum-free MACS buffer at 4° C. for 1 hour. 2×10^5 PBMC were then treated with serial dilutions of test compounds for 30 min at 37° C. Cells were fixed and permeabilized with Foxp3/Transcription Factor Staining Buffer Set (EBIO) by incubating with 1× Foxp3 fixation/permeabilization working solution for 30 minutes and washing with 1× permeabilization buffer. Cells were additionally fixed with Cytofix buffer and permeabilized with Perm Buffer III (BD Biosciences) and then washed. After blocking Fc receptors by adding human TruStain FcX (1:50 dilution), cells were stained with a mixture of anti-CD25-PE, anti-FOXP3-APC, anti-pSTAT5-FITC, and anti-CD4-PerCP-Cy5.5 antibodies at concentrations recommended by the manufacturer for 45 minutes at room temperature. Cells were collected by centrifugation, washed, resuspended in FACS buffer, and analyzed by flow cytometry. The flow cytometry data was gated into CD4+/Foxp3+/CD25^high and CD4+/Foxp3−/CD25^low groups for the Treg and CD4 conventional T cell subsets, respectively. Data are expressed as a percent of pStat5 positive cells in gated population.

[2] = system: CD4+ Treg vs CD4+ Tconv cells; experiment: STAT5 phosphorylation, selectivity / activity profile Treg versus CD4+ Tconv cells, human PBMC
Text: as §1, §2
The S125I substitution was then introduced into wild-type IL-2 or IL-2 variants that already harbored 1 or 2 mutations targeting receptor subunit(s) β or γ or βγ. The resulting IL-2 variants containing isoleucine at position 125 were tested for their ability to stimulate STAT5 phosphorylation in Treg and Tconv cells in comparison with their respective serine counterparts at position 125. Table 7 lists the potency and selectivity of IL-2 variants in Treg cells. The two molecules in the same row of Table 7 share the same other amino acid substitution(s) and differ only at position 125 with either serine or isoleucine.

[3] = system: STAT5 phosphorylation in CD4+ Tconv cells; experiment: STAT5 phosphorylation in CD4+ Tconv cells, human PBMC assay by FACS
Text: as §1, §2

Substance	STAT5 phosphorylation activity in Treg cells (in words) [1]	activity profile / selectivity window Treg over CD4+ Tconv (in words) [2]	STAT5 phosphorylation activity in CD4+ Tconv cells (in words) [3]	other results
P-0303: IL-2 Q126E Fc fusion, SEQ ID NO: 90	minimally impacted the pSTAT5 activation potency	modestly improved selective window		
P-0322: IL-2 D20T/Q126E Fc fusion, SEQ ID NO: 99	pronounced reduced potency			
P-0365: IL-2 D20N Fc fusion, SEQ ID NO: 76	ability to induce STAT5 phosphorylation		largely diminished or abolished	
P-0366: IL-2 D20Q Fc fusion, SEQ ID NO: 77	ability to induce STAT5 phosphorylation		largely diminished or abolished	
P-0367: IL-2 D20S Fc fusion, SEQ ID NO: 78	ability to induce STAT5 phosphorylation		largely diminished or abolished	
P-0368: IL-2 D20Y Fc fusion, SEQ ID NO: 79	no biological activity		no biological activity	
P-0373: IL-2 L19N Fc fusion, SEQ ID NO: 82		wide window for selective targeting of Treg subset; also recorded: some or significant biased selective window	reduced	
P-0374: IL-2 L19R Fc fusion, SEQ ID NO: 83			largely retained the biological activity	
P-0417: IL-2 L19N/Q126E Fc fusion, SEQ ID NO: 103	pronounced reduced potency			
P-0423: IL-2 L19Q Fc fusion, SEQ ID NO: 152			largely retained the biological activity	
P-0427: IL-2 L19S Fc fusion, SEQ ID NO: 156			largely retained the biological activity	
P-0448: IL-2 L19Q/Q126E Fc fusion, SEQ ID NO: 174	significant potency	on par with Benchmark-2	largely abolished	
P-0449: IL-2 L19S/Q126E Fc fusion, SEQ ID NO: 175	significant potency	on par with Benchmark-2	largely abolished	
P-0464: IL-2 L19Y/Q126K Fc fusion, SEQ ID NO: 176	retained comparable potency		varied significantly	
P-0474: IL-2 L19Y/Q22K Fc fusion, SEQ ID NO: 186	retained comparable potency		varied significantly	
P-0480: IL-2 L19H/Q126K Fc fusion, SEQ ID NO: 189				Treg Selectivity ([2]; Serine-125 constructs): Yes

Substance	STAT5 phosphorylation activity in Treg cells (in words) [1]	activity profile / selectivity window Treg over CD4+ Tconv (in words) [2]	STAT5 phosphorylation activity in CD4+ Tconv cells (in words) [3]	other results
P-0536: Tocilizumab IL-2 L19H/S125I/Q126E bivalent fusion, SEQ ID NOs 253 + 255	slightly higher activity than its monomeric equivalent P-0546			
P-0559: Tocilizumab IL-2 D20Q/S125I bivalent fusion, SEQ ID NOs 253 + 265	reduced potency	selective activation of Treg cells over CD4+ Tconv cells	essentially abolished	
P-0588: Tocilizumab IL-2 D20S/S125I bivalent fusion, SEQ ID NOs 253 + 257	reduced potency			
P-0589: Tocilizumab IL-2 D20N/S125I bivalent fusion, SEQ ID NOs 253 + 258	reduced potency			
P-0590: Tocilizumab IL-2 L19N/S125I/Q126E bivalent fusion, SEQ ID NOs 253 + 267	reduced potency			maximum possible effect / signaling amplitude of STAT5 phosphorylation in Treg cells [1]: lower signaling amplitude
P-0694: Tocilizumab IL-2 L19H/S125I/Q126D bivalent fusion, SEQ ID NOs 253 + 308	reduced potency	wide selectivity window	essentially abolished	
P-0695: Tocilizumab IL-2 L19H/S125I/Q126H bivalent fusion, SEQ ID NOs 253 + 309		did not impair the protein activity nor improve the Treg selectivity		
P-0697: Tocilizumab IL-2 L19H/S125I/Q126N bivalent fusion, SEQ ID NOs 253 + 310		did not impair the protein activity nor improve the Treg selectivity		
P-0698: Tocilizumab IL-2 L19H/S125I/Q126R bivalent fusion, SEQ ID NOs 253 + 311		did not impair the protein activity nor improve the Treg selectivity		
P-0699: Tocilizumab IL-2 L19H/S125I/Q126S bivalent fusion, SEQ ID NOs 253 + 312		did not impair the protein activity nor improve the Treg selectivity		
P-0700: Tocilizumab IL-2 L19H/S125I/Q126T bivalent fusion, SEQ ID NOs 253 + 307		did not impair the protein activity nor improve the Treg selectivity		
P-0859: IL-2 L19N/S125I/Q126E Fc fusion, SEQ ID NO: 306	different levels of potency attenuation			maximum possible effect / signaling amplitude of STAT5 phosphorylation in Treg cells [1]: moderately reduced
P-0860: IL-2 L19D/S125I/Q126E Fc fusion, SEQ ID NO: 300	different levels of potency attenuation			maximum possible effect / signaling amplitude of STAT5 phosphorylation in Treg cells [1]: strikingly lower
P-0862: Fc fusion, 5 amino acid N-terminal deletion of P-0511 IL-2 variant (Table 4H prints L19D), SEQ ID NO: 302	fully retained potency			
P-0863: Fc fusion, 7 amino acid N-terminal deletion of P-0511 IL-2 variant (Table 4H prints L19D), SEQ ID NO: 303	fully retained potency			

Reference: patent US20220170028A1, “NOVEL INTERLEUKIN-2 VARIANTS AND BIFUNCTIONAL FUSION MOLECULES THEREOF” (Cugene Inc, priority 2019, published 2022)
